This test has as its target Coagulation factor X (Homo sapiens, UniProt P00742). The experiment in a line: Inhibitory activity against human Coagulation factor X in a purified enzyme system.

Coagulation factor X, sequence (P00742 41-179 limits assumed): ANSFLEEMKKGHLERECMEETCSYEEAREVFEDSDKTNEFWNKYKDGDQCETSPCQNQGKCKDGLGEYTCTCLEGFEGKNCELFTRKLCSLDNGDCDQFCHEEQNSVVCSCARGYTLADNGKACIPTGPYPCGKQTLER
Coagulation factor X, sequence (P00742 235-488 limits assumed): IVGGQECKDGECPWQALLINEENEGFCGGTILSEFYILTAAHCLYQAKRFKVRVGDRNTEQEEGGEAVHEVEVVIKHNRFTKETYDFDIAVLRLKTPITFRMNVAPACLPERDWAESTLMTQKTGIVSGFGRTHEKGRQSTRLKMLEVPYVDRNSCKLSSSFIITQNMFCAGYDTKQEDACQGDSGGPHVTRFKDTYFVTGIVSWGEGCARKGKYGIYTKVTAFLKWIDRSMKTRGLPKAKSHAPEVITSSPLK

Broadly, the IC50 is the concentration needed to halve the response being measured. `CC(NC(=O)Nc1ccc(Cl)cc1)C(=O)Nc1ccc(N2CCOCC2=O)cc1` (single isomer, unassigned): the IC50 came out at 78 nM.
The value for `CCC(NC(=O)Nc1ccc(Cl)cc1)C(=O)Nc1ccc(N2CCOCC2=O)cc1` (single isomer, unassigned) was 17 nM.

The values above are taken from ChEMBL document CHEMBL1136317, “A general synthesis of 1-aryl carbamoyl-2-alkyl-4-aryl substituted semicarbazides as nonbasic factor Xa inhibitors” (Bioorg Med Chem Lett, 2003).
